Assay: Inhibition of PAD4 in C57BL/6 mouse bone marrow neutrophils assessed as inhibition of PMA-stimulated neutrophil extracellular trap formation preincubated for 30 mins followed by PMA stimulation measured after 3 to 4 hrs by DNA/neutrophil elastase overlap assay

CC(C)(C)n1nnc([C@H](CCCNC(=N)CCl)NC(=O)c2ccc(-c3ccccc3)cc2)n1
EC50: 20 µM
